Experiment: solvent given as SMILES

SMILES: Cc1cc2c(o1)c(C)cc1ccc(=O)oc12
- fluorescence lifetime (in C1CCCCC1): 0.02 ns
- fluorescence lifetime (in C1COCCO1): 0.02 ns
- fluorescence lifetime (in CC#N): 0.02 ns
- fluorescence lifetime (in CCO): 2.3 ns
- fluorescence lifetime (in OCC(F)(F)F): 2.8 ns

SMILES: COC(=O)C(Cc1ccc2oc(-c3ccc(-n4c5ccccc5c5ccccc54)cc3)nc2c1)NC(=O)OC(C)(C)C (configuration not stated)
- fluorescence lifetime (in C1CCCCC1): 1.37 ns
- fluorescence lifetime (in C1CCOC1): 3.32 ns
- fluorescence lifetime (in C1COCCO1): 2.49 ns
- fluorescence lifetime (in CC1CCCO1): 2.78 ns
- fluorescence lifetime (in CC#N): 5.02 ns
- fluorescence lifetime (in CC(C)(C)O): 4.03 ns
- fluorescence lifetime (in CC(C)=O): 4.28 ns
- fluorescence lifetime (in CC(C)CC(C)(C)C): 1.3 ns
- fluorescence lifetime (in CC(C)O): 4.49 ns
- fluorescence lifetime (in CC(O)CO): 5.74 ns
- fluorescence lifetime (in CCCCCCCO): 4 ns
- fluorescence lifetime (in CCCCCCO): 4.11 ns
- fluorescence lifetime (in CCCCCO): 3.36 ns
- fluorescence lifetime (in CCCCO): 4.52 ns
- fluorescence lifetime (in CCO): 5.3 ns
- fluorescence lifetime (in CCOC(C)=O): 3.08 ns
- fluorescence lifetime (in CCOCC): 2.8 ns
- fluorescence lifetime (in CN(C)C=O): 4.97 ns
- fluorescence lifetime (in CO): 5.34 ns
- fluorescence lifetime (in CS(C)=O): 5.45 ns
- fluorescence lifetime (in Cc1ccccc1): 1.84 ns
- fluorescence lifetime (in OCCO): 6.17 ns

SMILES: COC(=O)c1ccc(-c2nc3ccc(N(C)C)cc3s2)cc1
- fluorescence lifetime (in C1CCCCC1): 2.4 ns

SMILES: c1ccc2c(-c3cncnc3)c3ccccc3c(-c3cncnc3)c2c1
- fluorescence lifetime (in CCO): 6.4 ns
- fluorescence lifetime (in ClCCl): 7.2 ns

SMILES: CCCCCCOc1ccc(N(c2ccc(OCCCCCC)cc2)c2ccc(-c3sc(-c4ccc(N(c5ccc(OCCCCCC)cc5)c5ccc(OCCCCCC)cc5)cc4)c4nc(-c5ccc(C(=O)OC)cc5)c(-c5ccc(C(=O)OC)cc5)nc34)cc2)cc1
- fluorescence lifetime (in CN(C)C=O): 0.61 ns
- fluorescence lifetime (in ClC(Cl)Cl): 0.58 ns

SMILES: COc1cccc2c1C(=O)c1ccccc1-2
- fluorescence lifetime (in CC#N): 2.1 ns
- fluorescence lifetime (in CC(C)O): 8.52 ns
- fluorescence lifetime (in CCCCO): 7.27 ns
- fluorescence lifetime (in CCCO): 6.93 ns
- fluorescence lifetime (in CCO): 5.98 ns
- fluorescence lifetime (in CO): 3.82 ns

SMILES: c1ccc2[nH]ccc2c1
- fluorescence lifetime (in O): 4.49 ns

SMILES: Cc1cc(C2=C(c3c(C)sc(-c4ccc(-c5nc(-c6ccccc6)c(-c6ccccc6)[nH]5)cc4)c3C)C(F)(F)C(F)(F)C2(F)F)c(C)s1
- fluorescence lifetime (in C1CCOC1): 0.54 ns

SMILES: CC[n+]1c(C=C2C(=O)C(C=C3N(C)c4ccc(Cl)cc4C3(C)C)=C2[O-])[se]c2ccccc21
- fluorescence lifetime (in CO): 0.43 ns
- fluorescence lifetime (in ClC(Cl)Cl): 2.14 ns

SMILES: [O-]c1ccc2ccccc2c1
- fluorescence lifetime (in O): 9.43 ns

SMILES: Cc1ccc(-c2ccc(/C=C/c3ccc([N+](=O)[O-])cc3)cn2)nc1
- fluorescence lifetime (in CC#N): 0.31 ns

SMILES: C(#Cc1ccccc1C#Cc1ccccc1)c1ccccc1
- fluorescence lifetime (in CC#N): 1.47 ns

SMILES: CCN(CC)c1ccc(C=Cc2nc3nc4ccccc4nc3s2)c(OC)c1
- fluorescence lifetime (in CCCCCCC(C)O): 0.977 ns
- fluorescence lifetime (in CCOC(C)=O): 0.96 ns
- fluorescence lifetime (in CO): 0.04 ns
- fluorescence lifetime (in CS(C)=O): 0.41 ns
- fluorescence lifetime (in Cc1ccccc1): 0.27 ns
- fluorescence lifetime (in ClC(Cl)Cl): 0.97 ns
- fluorescence lifetime (in ClCCl): 1.29 ns

SMILES: c1ccc(N2c3ccccc3Sc3cc(-c4cccc5nc6ccccc6cc45)ccc32)cc1
- fluorescence lifetime (in CC#N): 7.58 ns
- fluorescence lifetime (in CCCCCC): 2.05 ns
- fluorescence lifetime (in CCOCC): 3.96 ns
- fluorescence lifetime (in ClCCl): 3.32 ns

SMILES: COc1ccc(C2=C3C=c4c(oc5ccccc45)=[N+]3[B-](F)(F)n3c2cc2c4ccccc4oc23)cc1
- fluorescence lifetime (in C1CCCCC1): 4.1 ns
- fluorescence lifetime (in CCOC(C)=O): 4.22 ns
- fluorescence lifetime (in CO): 4.14 ns

SMILES: CCN(CC)c1ccc(C=Cc2nc3nc4ccccc4nc3s2)cc1
- fluorescence lifetime (in CCCCCCC(C)O): 0.991 ns
- fluorescence lifetime (in CCOC(C)=O): 1.36 ns
- fluorescence lifetime (in CO): 0.05 ns
- fluorescence lifetime (in CS(C)=O): 0.42 ns
- fluorescence lifetime (in Cc1ccccc1): 0.27 ns
- fluorescence lifetime (in ClC(Cl)Cl): 1.31 ns
- fluorescence lifetime (in ClCCl): 1.62 ns

SMILES: Cc1ccc2nc3c(=O)n(C)c(=O)nc-3n(C)c2c1
- fluorescence lifetime (in CC#N): 4.9 ns

SMILES: N#CC1=c2c3cccc4cccc(c43)n2[B-](F)(F)[n+]2ccccc21
- fluorescence lifetime (in ClCCl): 8.7 ns

SMILES: O=Cc1ccc(C#CC(C#Cc2ccc(C=O)s2)=Cc2ccc(C=C(C#Cc3ccc(C=O)s3)C#Cc3ccc(C=O)s3)s2)s1
- fluorescence lifetime (in ClC(Cl)Cl): 0.5 ns

SMILES: c1ccc2c(c1)[nH]c1c3ccccc3[nH]c21
- fluorescence lifetime (in CCCO): 5.5 ns

SMILES: COc1ccc(-c2c3cc4ccccc4cc3c(C#Cc3ccccc3)c3cc4ccccc4cc23)cc1
- fluorescence lifetime (in ClCCl): 2.2 ns

SMILES: CCC1=C(C)C2=C(c3cc(C(=O)Cl)cc(C4=C5C(C)=C(CC)C(C)=[N+]5[B-](F)(F)n5c(C)c(CC)c(C)c54)c3)c3c(C)c(CC)c(C)n3[B-](F)(F)[N+]2=C1C
- fluorescence lifetime (in CN(C)C=O): 4.1 ns

Source: the Deep4Chem optical property database
